Calls of active or inactive are those of the source. The rule behind the calls is not given here.

For this assay, the target named is Synaptosomal-associated protein 25 (Rattus norvegicus) (UniProt P60881). As to the kind of experiment: Inhibition of BoNT/A-mediated SNAP25 cleavage in rat spinal card cells after 24 hrs by Western blot analysis. The class given is cell-based.
Synaptosomal-associated protein 25 (Rattus norvegicus), sequence (P60881 whole entry, looked up): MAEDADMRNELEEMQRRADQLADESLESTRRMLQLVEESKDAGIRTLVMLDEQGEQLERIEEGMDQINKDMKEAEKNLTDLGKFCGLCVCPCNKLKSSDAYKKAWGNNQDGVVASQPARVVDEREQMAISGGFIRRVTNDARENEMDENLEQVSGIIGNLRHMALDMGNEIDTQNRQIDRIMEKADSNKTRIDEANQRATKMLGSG

With `CC(=O)N[C@@H]1[C@@H]([C@@H](C)C(O)CCO)O[C@](SCC(=O)NCCOCCOCCOCCn2cc(CNC(=O)c3cc(NC(=O)CNC(=O)c4cc(NC(=O)CN)cc(C(=O)NCC(=N)Nc5cc(C(=O)NCc6cn(CCOCCOCCOCCNC(=O)CS[C@@]7(C(=O)O)C[C@@H](O)[C@H](NC(C)=O)[C@@H]([C@@H](C)C(O)CCO)O7)nn6)cc(C(=O)NCc6cn(CCOCCOCCOCCNC(=O)CS[C@@]7(C(=O)O)C[C@@H](O)[C@H](NC(C)=O)[C@@H]([C@@H](C)C(O)CCO)O7)nn6)c5)c4)cc(C(=O)NCc4cn(CCOCCOCCOCCNC(=O)CS[C@]5(C(=O)O)C[C@H](O)[C@@H](NC(C)=O)[C@H]([C@H](C)C(O)CCO)O5)nn4)c3)nn2)(C(=O)O)C[C@H]1O` (some centres not stated), the outcome was Active.
Consider `CC(=O)N[C@@H]1[C@@H]([C@@H](C)C(O)CCO)O[C@](SCC(=O)NCCOCCOCCOCCn2cc(CNC(=O)c3cc(NC(=O)CN)cc(C(=O)NCc4cn(CCOCCOCCOCCNC(=O)CS[C@]5(C(=O)O)C[C@H](O)[C@@H](NC(C)=O)[C@H]([C@H](C)C(O)CCO)O5)nn4)c3)nn2)(C(=O)O)C[C@H]1O` (some centres not stated), for which the result was Active.
